Experimental findings from the supplement of paper PMC10290057 are described below.

Molecules are shown by their SMILES. Counter-ions that a name gives are not always drawn.
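Also: Luminescence-based viability readout, five doses per compound, normalized against on-plate DMSO and empty-well controls, followed by dose-response curve fitting for every drug.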

This assay relates to HCT116. The experiment in a line: efficacy (fitted maximal change in viability relative to DMSO control); higher = less cytotoxic (negative = loss of viability). Particulars: 48 h.
Take `C[C@@H]\1CC(=O)N\N=C1C2=CC=C(NN=C(C#N)C#N)C=C2` [Levosimendan]: the efficacy is -64.6%.

As to `Clc1cccc(C(c2ccc3nc[nH]c3c2)n2ccnc2)c1` (centres undefined) [Liarozole], the efficacy is -23%. The figure for `CC1(C)Cc2c(-c3ccccc3)c(-c3ccc(Cl)cc3)c(CC(=O)O)n2C1` [Licofelone] is -36.6%. The figure for `OCc1ccc(-c2nn(Cc3ccccc3)c3ccccc23)o1` [Lificiguat] is -57.1%; for `CC#CCn1c(N2CCC[C@@H](N)C2)nc2c1c(=O)n(Cc1nc(C)c3ccccc3n1)c(=O)n2C` [Linagliptin] it is -31.7%; for `O=C1N(c2ccccc2)c2ccccc2C1(Cc1ccncc1)Cc1ccncc1` [Linopirdine] it is -12.1%.

For `C[S+](=O)([O-])Oc1ccc2c(NC(N)=O)c(C(=O)c3ccc(Cl)cc3Cl)oc2c1` [Lirimilast], the efficacy is -17.7%. The figure for `CCN1\C=C(C(O)=O)/C(=O)C2=C1C(=C(N3CCNC(C)C3)C(=C2)F)F` (centres undefined) [Lomefloxacin hydrochloride] is -18.8%.

Regarding `O=C(O)c1nn(Cc2ccc(Cl)cc2Cl)c2ccccc12` [Lonidamine], the efficacy was -7.79%. `Cc1c(F)cc(C(=O)NC2CC2)cc1-c1ccc(C(=O)NCC(C)(C)C)cn1` [Losmapimod]: the efficacy is -18.8%. The value for `CCOC(=O)O[C@@]1(CC[C@H]2[C@@H]3CCC/4=C/C(=O)/C=C\[C@]4(C)[C@H]3[C@@H](O)C[C@]12C)C(=O)OCCl` [Loteprednol etabonate] was -16%; that for `CC[C@H](C)C(=O)O[C@H]1C[C@@H](C)\C=C2\C=C/[C@H](C)[C@H](CC[C@@H]3C[C@@H](O)CC(=O)O3)[C@@H]12` [Lovastatin] was -14.4%. The figure for `CCCCC(F)(F)[C@@]1(O)CC[C@H]2[C@@H](CC(=O)[C@@H]2CCCCCCC(=O)O)O1` [Lubiprostone] is -6.29%; for `CCCCN(CCCC)CC(O)c1cc(Cl)cc2c1-c1ccc(Cl)cc1/C2=C/c1ccc(Cl)cc1` (centres undefined) [Lumefantrine] it is -26.5%. The value for `C=C(C)[C@@H]1CC[C@]2(C)CC[C@]3(C)[C@H](CC[C@@H]4[C@@]5(C)CC[C@H](O)C(C)(C)[C@@H]5CC[C@]43C)[C@@H]12` [Lupeol] was -15.6%. As to `CN1\C(=C([O-])/C2=CC=CC=C2[S+]1([O-])=O)C(=O)NC3=NC=C(C)S3` [MELOXICAM SODIUM], the efficacy is 9%.

On to `C1Cc2[nH]nc(-c3nn[nH]n3)c2C1` [MK-0354], for which the efficacy was -7.85%. The value for `O=C1O[C@]2(CC[C@@H](C(=O)Nc3ccn(-c4ccccc4F)n3)CC2)c2cnccc21` [MK-0557] was -11.9%; that for `O=C(O)CCC1CCC(c2cc(F)ccc2F)([S+](=O)([O-])c2ccc(Cl)cc2)CC1` (centres undefined) [MK-0752] was -19%. The value for `COc1ccc(CC2SC(=O)NC2=O)cc1C(=O)NCc1ccc(C(F)(F)F)cc1` (centres undefined) [MK-767] was -17.2%; that for `CO[C@@H]1COCC[C@@H]1N[C@@H]1CC[C@@](C(=O)N2CCc3ncc(C(F)(F)F)cc3C2)(C(C)C)C1` [MK-0812] was -11.1%. The figure for `COc1ccc(CNC(=O)c2cc(-c3cncc(Cl)c3)cnc2-c2ccccn2)nc1OC` [MK-1064] is 12.4%; for `Cn1c(-c2ccccc2C(F)(F)F)nnc1C12CCC(c3noc(C4CC(F)(F)C4)n3)(CC1)CC2` [MK-4101] it is -26.2%; for `O=C(O)Cn1nnc(-c2cc(N3CCC(Oc4cc(F)ccc4Br)CC3)no2)n1` [MK-8245] it is -19.9%. For `CN1CCN(C(=O)c2ccc(-c3ccc4c(C=O)c(O)ccc4c3)s2)CC1` [MKC-3946], the efficacy is -13.9%. The figure for `O=[S+]([O-])(c1cccc2c(I)cccc12)N1CCCNCC1` [ML-7] is -56.9%; for `O=C(O)c1ccccc1-c1ccc(/C=c2\sc3nc4cc(Br)cnc4n3c2=O)o1` [ML-119] it is -9.89%; for `COC1=CC=C(C=C1)C2CC(=N/N2C3=CC=C(C=C3)[S+](N)([O-])=O)\C4=CC=CC=C4` (centres undefined) [ML-141] it is -60%.

For `[2H]C([2H])(Nc1nc(-c2ccccc2C([2H])(C([2H])([2H])[2H])C([2H])([2H])[2H])ncc1C)c1ccc(-n2ccnn2)cc1` [ML-323], the efficacy is -36.2%. The figure for `COc1ccc(-c2cnc3c(-c4cccc5ncccc45)cnn3c2)cc1` [ML-347] is 9.54%. The value for `COc1c(Cl)cc2c([nH]c3cnccc32)c1NC(=O)c1cccnc1C` [MLN-120B] was -95.3%; that for `CCCN[S+](=O)([O-])Nc1ncnc(OCCOc2ncc(Br)cn2)c1-c1ccc(Br)cc1` [Macitentan] was -63.7%; that for `CC(C)OC(=O)C(C(=O)OC(C)C)=C1S\C=C/S1` [Malotilate] was -26.9%. The value for `COC(=O)C1=C(C)NC(C)=C(C(=O)OCCN2CCN(C(c3ccccc3)c3ccccc3)CC2)C1c1cccc([N+](=O)[O-])c1.Cl.Cl` (centres undefined) [Manidipine] was -75%; that for `OC[C@@H](O)[C@@H](O)[C@H](O)[C@@H](O)CO` [Mannitol] was 13%; that for `Cc1nnc(C(C)C)n1C1CC2CCC(C1)N2CC[C@H](NC(=O)C1CCC(F)(F)CC1)c1ccccc1` (some centres undefined) [Maraviroc] was -6.73%. As for `COC(=O)Nc1nc2cc(C(=O)c3ccccc3)ccc2[nH]1` [Mebendazole], the efficacy is -65.1%.

Consider `CCOC(=O)c1c(C)n(C)c2ccc(O)cc12` [Mecarbinate], for which the efficacy is -21.6%. The value for `C[C@H]1C[C@@H]2[C@H](CC[C@@]3(C)[C@H]2CC[C@]3(OC(C)=O)C(C)=O)[C@@]\4(C)CCC(=O)\C=C14` [Medroxyprogesterone acetate] was -13.3%; that for `CC(=O)O[C@@]1(CC[C@H]2[C@@H]3\C=C(C)/C4=C/C(=O)CC[C@]4(C)[C@H]3CC[C@]12C)C(C)=O` [Megestrol acetate] was -13.4%. As to `COc1ccc2[nH]cc(CCNC(C)=O)c2c1` [Melatonin], the efficacy was -10.4%.

As for `N[C@@H](Cc1ccc(N(CCCl)CCCl)cc1)C(=O)O` [Melphalan], the efficacy was -56.5%. The figure for `CC1=CC(=O)c2ccccc2C1=O` [Menadione] is -10.7%; for `O=S(=O)([O-])CCS` [Mesna] it is -8.13%. The figure for `C#C[C@]1(O)CC[C@H]2[C@@H]3CCc4cc(OC)ccc4[C@H]3CC[C@@]21C` [Mestranol] is -33.5%; for `CSCC[C@@H](NC(=O)[C@@H](Cc1ccccc1)NC(=O)CNC(=O)CNC(=O)[C@@H](N)Cc1ccc(O)cc1)C(=O)O` [Metenkephalin] it is -81.4%. The value for `CN(C)C(=N)NC(=N)N` [Metformin] was -21.8%; that for `CN(C)[C@H]\1[C@@H]2[C@@H](O)[C@@H]\3C(=C)C4=C(C(=CC=C4)O)C(=O)C3=C(\O)[C@@]2(O)C(=O)\C(=C1O)C(N)=O` [Methacycline hydrochloride] was -9.07%; that for `C[C@](N)(Cc1ccc(O)c(O)c1)C(=O)O` [Methyldopa] was -16.9%. Take `CN(C)c1ccc2nc3ccc(N(C)C)cc3[s+]c2c1.[Cl-]` [Methylene blue]: the efficacy was -96.6%. For `C[C@H]1C[C@H]2[C@@H]3CC[C@](O)(C(=O)CO)[C@@]3(C)C[C@H](O)[C@@H]2[C@@]\4(C)/C=C\C(=O)\C=C14` [Methylprednisolone], the efficacy stood at 20%. Consider `CC#C[C@]1(O)CC[C@H]2[C@@H]/3CCC/4=C/C(=O)CCC4=C3[C@H](C[C@]12C)C5=CC=C(C=C5)N(C)C` [Mifepristone], for which the efficacy is -73.4%. The figure for `C\C1=C(\C=C(\C#N)C(=O)N1)C2=CC=NC=C2` [Milrinone] is -8.82%; for `O=C(c1ccc(N[S+](=O)([O-])c2cccc3cccnc23)cc1)N1CCN(CC2CC2)CC1` [Mitapivat] it is -18.2%; for `CO[C@@]12[C@H](COC(N)=O)C/3=C(N1C[C@@H]4N[C@H]24)/C(=O)/C(=C(N)\C3=O)C` [Mitomycin C] it is -11.2%.

As for `Clc1ccc(C(c2ccccc2Cl)C(Cl)Cl)cc1` (centres undefined) [Mitotane], the efficacy was -92.3%.

Consider `NC(=O)c1ncn([C@@H]2O[C@H](CO)[C@@H](O)[C@H]2O)c1O` [Mizoribine], for which the efficacy was determined as 18%. The value for `O=C\1N(N\C=C1[N]2C=CN=N2)C3=NC=NC(=C3)N4CCOCC4` [Molidustat] was -58.6%. The value for `CCOC(=O)C/1=C(C)/NC(=S)NC1C2=CC=CC(=C2)O` (centres undefined) [Monastrol] was -52.1%; that for `CCOc1cc(N)c(Cl)cc1C(=O)NCC1CN(Cc2ccc(F)cc2)CCO1` (centres undefined) [Mosapride citrate] was -28.4%; that for `CC1(C)CNc2cc(NC(=O)c3cccnc3NCc3ccncc3)ccc21` [Motesanib] was 10.7%. The value for `COc1c(N2C[C@@H]3CCCN[C@@H]3C2)c(F)cc2c(=O)c(C(=O)O)cn(C3CC3)c12.Cl.O` [Moxifloxacin hydrochloride] was -9.48%; that for `OC1=CC2=C(C(=C1)O)C(=O)\C(=C(/O2)C3=CC(=C(O)C(=C3)O)O)O` [Myricetin] was -26.3%. For `COc1ccc(C(=O)N2CCN(C(=O)/C=C/c3ccc(Br)cc3)CC2)cc1` [NIBR-189], the efficacy was -15.1%.

As for `NC(=O)c1cc(F)cc2c1C(=O)N(C1CCN(C3CCC(F)(F)CC3)CC1)C2` [NMS-P118], the efficacy is -18.7%.

As for `Oc1nc(-c2ccc(C(F)(F)F)cc2)nc2c1CSCC2` [NVP-XAV-939], the efficacy is -13.5%. The figure for `CC(C)NC(=O)N1CC[C@@H](C1)NC/2=N/C3=C(C=CC(=C3)F)N(CC(F)F)C4=C2C=C(Cl)C=C4` [NVS-PAK1-1] is -21.2%; for `N=C(N)Nc1ccc(C(=O)Oc2ccc3cc(C(=N)N)ccc3c2)cc1` [Nafamostat mesilate] it is -24.8%. The value for `CC(C)(C)C(=O)CN1C(=O)[C@H](NC(=O)Nc2cccc(C(=O)O)c2)CN(C2CCCCC2)c2ccccc21` [Nastorazepide] was -4.67%.
